Test results taken from the supplement of paper PMC10307832.

Legend:
Experiment in all cases: relative viability (nuclei count vs DMSO), 5 days (fraction); higher = more cells survive
Elesclomol + Alpelisib = compound: CN(NC(=O)CC(=O)NN(C)C(=S)c1ccccc1)C(=S)c1ccccc1 [Elesclomol] + Cc1nc(NC(=O)N2CCC[C@H]2C(N)=O)sc1-c1ccnc(C(C)(C)C(F)(F)F)c1 [Alpelisib] (partner 2 µM)
Procedure, shortened: (§1)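 Lung cancer cell lines in 1536-well plates got either a single drug or a fixed anchor-drug dose together with five library-drug doses (not always all listed) in √10 steps, by pin tool, on the day after seeding. Nuclei were counted after 5 days, and relative viability is the treated-to-vehicle ratio of nuclei counts. Values are medians of duplicate plates.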

Elesclomol + Pemetrexed = compound: CN(NC(=O)CC(=O)NN(C)C(=S)c1ccccc1)C(=S)c1ccccc1 [Elesclomol] + Nc1nc2[nH]cc(CCc3ccc(C(=O)N[C@@H](CCC(=O)O)C(=O)O)cc3)c2c(=O)[nH]1 [Pemetrexed] (partner 0.2 µM)
Procedure, shortened: as §1

Elesclomol + Decitabine = compound: CN(NC(=O)CC(=O)NN(C)C(=S)c1ccccc1)C(=S)c1ccccc1 [Elesclomol] + Nc1ncn([C@H]2C[C@H](O)[C@@H](CO)O2)c(=O)n1 [Decitabine] (partner 2 µM)
Procedure, shortened: as §1

Elesclomol + Vorinostat = compound: CN(NC(=O)CC(=O)NN(C)C(=S)c1ccccc1)C(=S)c1ccccc1 [Elesclomol] + O=C(CCCCCCC(=O)Nc1ccccc1)NO [Vorinostat] (partner 1 µM)
Procedure, shortened: as §1

Elesclomol + Olaparib = compound: CN(NC(=O)CC(=O)NN(C)C(=S)c1ccccc1)C(=S)c1ccccc1 [Elesclomol] + O=C(c1cc(Cc2n[nH]c(=O)c3ccccc23)ccc1F)N1CCN(C(=O)C2CC2)CC1 [Olaparib] (partner 8 µM)
Procedure, shortened: as §1

Cell Line | relative viability (Elesclomol + Alpelisib; first compound 0.003162 µM) | relative viability (Elesclomol + Alpelisib; first compound 0.01 µM) | relative viability (Elesclomol + Alpelisib; first compound 0.03162 µM) | relative viability (Elesclomol + Alpelisib; first compound 0.1 µM) | relative viability (Elesclomol + Pemetrexed; first compound 0.003162 µM) | relative viability (Elesclomol + Pemetrexed; first compound 0.01 µM) | relative viability (Elesclomol + Pemetrexed; first compound 0.03162 µM) | relative viability (Elesclomol + Pemetrexed; first compound 0.1 µM) | relative viability (Elesclomol + Decitabine; first compound 0.003162 µM) | relative viability (Elesclomol + Decitabine; first compound 0.01 µM) | relative viability (Elesclomol + Decitabine; first compound 0.03162 µM) | relative viability (Elesclomol + Decitabine; first compound 0.1 µM) | relative viability (Elesclomol + Vorinostat; first compound 0.003162 µM) | relative viability (Elesclomol + Vorinostat; first compound 0.01 µM) | relative viability (Elesclomol + Vorinostat; first compound 0.03162 µM) | relative viability (Elesclomol + Vorinostat; first compound 0.1 µM) | relative viability (Elesclomol + Olaparib; first compound 0.003162 µM) | relative viability (Elesclomol + Olaparib; first compound 0.01 µM) | relative viability (Elesclomol + Olaparib; first compound 0.03162 µM) | relative viability (Elesclomol + Olaparib; first compound 0.1 µM)
EKVX | 0.857 | 0.369 | 0.328 | 0.174 | 0.366 | 0.33 | 0.151 | 0.131 | 0.395 | 0.222 | 0.148 | 0.132 | 0.659 | 0.336 | 0.241 | 0.253 | 0.713 | 0.364 | 0.193 | 0.106
NCI-H1755 | 0.931 | 0.9 | 0.909 | 0.24 | 0.383 | 0.359 | 0.426 | 0.348 | 0.704 | 0.808 | 0.689 | 0.598 | 0.742 | 0.637 | 0.787 | 0.364 | 0.87 | 0.813 | 0.938 | 0.692
NCI-H1395 | 0.999 | 0.571 | 0.252 | 0.259 | 0.829 | 0.436 | 0.201 | 0.183 | 0.754 | 0.532 | 0.318 | 0.249 | 0.814 | 0.46 | 0.245 | 0.215 | 0.449 | 0.364 | 0.254 | 0.22
NCI-H2087 | 1.2 | 0.701 | 0.526 | 0.566 | 0.588 | 0.685 | 0.609 | 0.108 | 0.379 | 0.226 | 0.175 | 0.082 | 0.528 | 0.448 | 0.431 | 0.313 | 0.55 | 0.264 | 0.334 | 0.082
H3255 | 0.721 | 0.473 | 0.348 | 0.309 | 0.627 | 0.531 | 0.489 | 0.474 | 0.617 | 0.486 | 0.296 | 0.243 | 0.843 | 0.62 | 0.426 | 0.44 | 0.488 | 0.456 | 0.482 | 0.316
SK-MES-1 | 0.854 | 0.502 | 0.679 | 0.279 | 0.982 | 0.597 | 0.524 | 0.415 | 0.425 | 0.306 | 0.213 | 0.172 | 1.13 | 0.481 | 0.425 | 0.284 | 0.713 | 0.656 | 0.339 | 0.231
NCI-H23 | 0.662 | – | 0.491 | 0.122 | 0.787 | 0.568 | 0.503 | 0.12 | 0.338 | 0.338 | 0.213 | 0.147 | 0.559 | 0.385 | 0.318 | 0.0919 | 0.3 | 0.267 | 0.187 | 0.0908
HCC-827 | 0.98 | 1.01 | 0.975 | 0.657 | 0.275 | 0.272 | 0.258 | 0.246 | 0.344 | 0.35 | 0.283 | 0.252 | 0.759 | 0.777 | 0.742 | 0.767 | 0.58 | 0.522 | 0.672 | 0.475
